Values after ≈ are worked out from the molar mass of the structure shown.
How the values were obtained:
[1] = target: T1, Bifunctional dihydrofolate reductase-thymidylate synthase (Plasmodium berghei str. ANKA, UniProt Q27713); test: Compound was tested for its inhibition against dihydrofolate reductase enzyme of Plasmodium berghei; conditions: read-out: I50
Dihydrofolate reductase = target: T2, Dihydrofolate reductase (Rattus norvegicus, UniProt Q920D2); test: Inhibition against dihydrofolate reductase enzyme of rat liver; conditions: read-out: I50
T2 sequence (Q920D2 whole entry): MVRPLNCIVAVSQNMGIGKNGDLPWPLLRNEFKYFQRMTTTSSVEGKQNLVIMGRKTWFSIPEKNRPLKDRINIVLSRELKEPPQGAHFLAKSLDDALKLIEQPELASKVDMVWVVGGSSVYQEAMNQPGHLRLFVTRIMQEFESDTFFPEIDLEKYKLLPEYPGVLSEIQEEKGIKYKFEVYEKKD

[2] = target: T1, Bifunctional dihydrofolate reductase-thymidylate synthase; test: Tested for the inhibition of Plasmodium berghei dihydrofolate reductase enzyme; conditions: read-out: I50
Escherichia coli = test: Tested for antibacterial activity against Escherichia coli CN314; assay type: functional
Proteus vulgaris = test: Tested for antibacterial activity against Proteus vulgaris CN329; assay type: functional
Shigella dysenteriae = test: Tested for antibacterial activity against Shigella dysentariae CN1513; assay type: functional
Staphylococcus aureus [3] = test: Tested for antibacterial activity against Staphylococcus aureus CN491; assay type: functional
Salmonella = test: Tested for antibacterial activity against Salmonella typhi CN512; assay type: functional, salmonella typhosa
Streptococcus pyogenes = test: Tested for antibacterial activity against Streptococcus pyogenes CN10; assay type: functional
Staphylococcus aureus [4] = test: Tested for antibacterial activity against Staphylococcus aureus CN491

T1 sequence (Q27713 whole entry): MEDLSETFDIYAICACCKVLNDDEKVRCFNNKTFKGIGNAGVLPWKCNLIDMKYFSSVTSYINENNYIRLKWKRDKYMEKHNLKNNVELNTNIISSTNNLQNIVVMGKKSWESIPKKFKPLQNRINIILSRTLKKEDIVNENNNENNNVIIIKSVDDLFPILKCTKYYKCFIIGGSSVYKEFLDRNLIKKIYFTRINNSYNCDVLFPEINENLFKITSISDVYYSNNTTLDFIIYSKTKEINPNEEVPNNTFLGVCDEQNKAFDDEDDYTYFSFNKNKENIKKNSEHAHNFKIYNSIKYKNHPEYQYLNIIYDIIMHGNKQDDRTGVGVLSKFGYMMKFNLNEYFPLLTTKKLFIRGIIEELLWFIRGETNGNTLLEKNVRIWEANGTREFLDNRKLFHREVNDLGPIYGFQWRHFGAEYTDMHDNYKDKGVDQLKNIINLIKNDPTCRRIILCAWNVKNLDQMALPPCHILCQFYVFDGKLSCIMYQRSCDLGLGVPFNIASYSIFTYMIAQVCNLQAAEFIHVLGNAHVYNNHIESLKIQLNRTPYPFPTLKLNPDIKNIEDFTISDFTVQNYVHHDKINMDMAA

SMILES	IC50 (Dihydrofolate reductase)	MIC (Escherichia coli)	MIC (Proteus vulgaris)	MIC (Shigella dysenteriae)	MIC (Salmonella)	MIC (Streptococcus pyogenes)	also measured
CCCc1nc(N)nc(N)c1Cc1cc(OC)c(O)c(OC)c1							IC50 [1]: 1.5 µM
COc1cc(Cc2c(N)nc(N)nc2N)cc(OC)c1OC	> 900 µM						
COc1cc(Cc2c(N)nc(N)nc2-c2ccccc2)cc(OC)c1O	> 45 µM						
COc1cc(Cc2c(N)nc(N)nc2SC)cc(OC)c1OC							IC50 [2]: 20 µM
CCCc1nc(N)nc(N)c1Cc1cc(OC)c(OC)c(OC)c1	1500 µM						
COc1cc(Cc2c(N)nc(N)nc2OC)cc(OC)c1OC	> 100 µM	> 500 µg/mL	> 500 µg/mL	> 500 µg/mL	> 500 µg/mL	8 µg/mL (≈ 25 µM)	MIC (Staphylococcus aureus [3]): 125 µg/mL (≈ 390 µM)
COc1cc(Cc2c(N)nc(N)nc2Oc2ccccc2)cc(OC)c1OC		> 500 µg/mL	> 500 µg/mL	> 500 µg/mL	> 500 µg/mL	> 500 µg/mL	MIC (Staphylococcus aureus [4]): > 500 µg/mL
COc1c(C(C)(C)C)cc(Cc2c(N)nc(N)nc2SC)cc1C(C)(C)C		> 500 µg/mL	> 500 µg/mL	> 500 µg/mL	> 500 µg/mL	> 500 µg/mL	MIC (Staphylococcus aureus [4]): > 500 µg/mL
COc1cc(Cc2c(C)nc(N)nc2N)cc(OC)c1OC	> 400 µM						IC50 [1]: 0.34 µM
COc1cc(Cc2c(C)nc(N)nc2N)cc(OC)c1O							IC50 [1]: 0.48 µM
COc1cc(Cc2c(N)nc(N)nc2-c2ccccc2)cc(OC)c1OC	> 400 µM	250 µg/mL (≈ 682 µM)	> 500 µg/mL	125 µg/mL (≈ 341 µM)	250 µg/mL (≈ 682 µM)	16 µg/mL (≈ 43.7 µM)	MIC (Staphylococcus aureus [4]): 62 µg/mL (≈ 169 µM)

— ChEMBL document CHEMBL1121436, “2,4-Diamino-5-benzylpyrimidines as antibacterial agents. 4. 6-Substituted trimethoprim derivatives from phenolic Mannich intermediates. Application to the synthesis of trimethoprim and 3,5-dialkylbenzyl analogues” (J Med Chem, 1980)
